The results in this text go back to patent US12559529B2, “NPY2 receptor agonists” (Boehringer Ingelheim International GmbH, priority 2019, dated 2026).

*1 amine or outer side, *2 acyl side, *3 side chain or, on linkers, in order; H or OH if unused. Where a SMILES comes first, the peptide text is derived from it. Side-chain parts run from the residue outwards. The star is where a group is joined. C18 diacid = O=C(O)CCCCCCCCCCCCCCCCC(=O)*; γGlu = O=C(O)[C@H](CCC(=O)[*:2])N[*:1]; Isovaleryl = CC(C)CC(=O)*; AEEA = NCCOCCOCC(=O)O

The target of the test is T1, Human Neuropeptide Y2 Receptor (Homo sapiens, UniProt P49146).
T1 construct: purchased CHEMICON HTS066M
T1 sequence (P49146 1-381): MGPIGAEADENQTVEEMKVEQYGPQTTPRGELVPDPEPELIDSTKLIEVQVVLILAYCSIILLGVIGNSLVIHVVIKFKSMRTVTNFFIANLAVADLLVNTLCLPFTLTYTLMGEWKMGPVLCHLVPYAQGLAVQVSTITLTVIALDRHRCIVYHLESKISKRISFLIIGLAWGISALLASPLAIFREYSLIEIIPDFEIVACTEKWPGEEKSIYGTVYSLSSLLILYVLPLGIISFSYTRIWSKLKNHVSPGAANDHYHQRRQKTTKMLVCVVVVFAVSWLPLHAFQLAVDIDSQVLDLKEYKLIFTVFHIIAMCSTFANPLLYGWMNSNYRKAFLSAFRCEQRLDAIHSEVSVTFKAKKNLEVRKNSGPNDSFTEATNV
The test can be described thus: Radioligand binding competition assay (RLB). The conditions noted are these: Table 3; human 125I-PYY (1-36) 0.02 nM, Y2 receptor membranes; read-out: Ki. In outline:
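IC50 values come from nonlinear regression of sigmoidal dose-response curves of filter-bound radioactivity. Peptides competed with radioligand at human Y2 receptor membranes (0.5 μg protein/well) for 2 h at room temperature in pH 7.4 HEPES buffer containing Mg2+, Ca2+ and 0.2% ovalbumin.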
By Ki is commonly meant the dissociation constant of the complex between target and ligand, obtained from inhibition or displacement. On to `CC(C)CC(=O)N[C@@H](C)C(=O)N1CCC[C@H]1C(=O)N[C@@H](CCC(=O)O)C(=O)N[C@@H](CCCCNC(=O)COCCOCCNC(=O)COCCOCCNC(=O)CC[C@H](NC(=O)CCCCCCCCCCCCCCCCC(=O)O)C(=O)O)C(=O)N1CCC[C@H]1C(=O)N[C@@H](CCC(=O)O)C(=O)N[C@@H](CCC(=O)O)C(=O)N[C@@H](C)C(=O)N[C@@H](C)C(=O)N[C@@H](CO)C(=O)N[C@@H](C)C(=O)N[C@@H](CCC(=O)O)C(=O)N[C@@H](CCC(=O)O)C(=O)N[C@@H](CC(C)C)C(=O)N[C@@H](CCC(N)=O)C(=O)N[C@@H](CCCNC(=N)N)C(=O)N[C@@H](Cc1ccc(O)cc1)C(=O)N[C@@H](Cc1ccc(O)cc1)C(=O)N[C@H](C(=O)N[C@@H](CO)C(=O)N[C@@H](CC(C)C)C(=O)N[C@@H](CCCNC(=N)N)C(=O)N[C@@H](Cc1c[nH]cn1)C(=O)N[C@@H](Cc1ccc(O)cc1)C(=O)N[C@@H](Cc1ccc(O)cc1)C(=O)N[C@@H](CC(N)=O)C(=O)N[C@@H](Cc1c[nH]c2ccccc12)C(=O)N[C@@H](CC(C)C)C(=O)N[C@H](C(=O)N[C@@H](CCCNC(=N)N)C(=O)N[C@@H](CCC(N)=O)C(=O)N[C@@H](CCCNC(=N)N)C(=O)N[C@@H](Cc1ccc(O)cc1)C(N)=O)[C@@H](C)O)C(C)C` [Compound 220, N{alpha-4}-(3-methylbutanoyl)-N{epsilon-7}-[2-(2-{2-[2-(2-{2-[(4S)-4-carboxy-4-(17-carboxyheptadecanamido)butanamido]ethoxy}ethoxy)acetamido]ethoxy}ethoxy)acetamido]-[4A,7K,9E,11A,14A,18Q,22V,28Y,30W,31L]hPYY (4-36)], for which the Ki worked out at 2.99 nM. The result for `CC(C)CC(=O)N[C@@H](C)C(=O)N1CCC[C@H]1C(=O)N[C@@H](CCC(=O)O)C(=O)N[C@@H](CCCCNC(=O)COCCOCCNC(=O)COCCOCCNC(=O)CC[C@H](NC(=O)CCCCCCCCCCCCCCCCC(=O)O)C(=O)O)C(=O)N1CCC[C@H]1C(=O)N[C@@H](CCC(=O)O)C(=O)N[C@@H](CCC(=O)O)C(=O)N[C@@H](C)C(=O)N[C@@H](C)C(=O)N[C@@H](CCC(=O)O)C(=O)N1CCC[C@H]1C(=O)N[C@@H](CCC(=O)O)C(=O)N[C@@H](CCC(=O)O)C(=O)N[C@@H](CC(C)C)C(=O)N[C@@H](CCC(N)=O)C(=O)N[C@@H](CCCNC(=N)N)C(=O)N[C@@H](Cc1ccc(O)cc1)C(=O)N[C@@H](Cc1ccc(O)cc1)C(=O)N[C@H](C(=O)N[C@@H](CO)C(=O)N[C@@H](CC(C)C)C(=O)N[C@@H](CCCNC(=N)N)C(=O)N[C@@H](Cc1c[nH]cn1)C(=O)N[C@@H](Cc1ccc(O)cc1)C(=O)N[C@@H](Cc1ccc(O)cc1)C(=O)N[C@@H](CC(N)=O)C(=O)N[C@@H](Cc1c[nH]c2ccccc12)C(=O)N[C@@H](CC(C)C)C(=O)N[C@H](C(=O)N[C@@H](CCCNC(=N)N)C(=O)N[C@@H](CCC(N)=O)C(=O)N[C@@H](CCCNC(=N)N)C(=O)N[C@@H](Cc1ccc(O)cc1)C(N)=O)[C@@H](C)O)C(C)C` [Compound 223, N{alpha-4}-(3-methylbutanoyl)-N{epsilon-7}-[2-(2-{2-[2-(2-{2-[(4S)-4-carboxy-4-(17-carboxyheptadecanamido)butanamido]ethoxy}ethoxy)acetamido]ethoxy}ethoxy)acetamido]-[4A,7K,9E,11A,13E,18Q,22V,28Y,30W,31L]hPYY (4-36)] reads 4.77 nM; that for `CC(C)CC(=O)N[C@@H](C)C(=O)N1CCC[C@H]1C(=O)N[C@@H](CCC(=O)O)C(=O)N[C@@H](CCCCNC(=O)COCCOCCNC(=O)COCCOCCNC(=O)CC[C@H](NC(=O)CCCCCCCCCCCCCCCCC(=O)O)C(=O)O)C(=O)N1CCC[C@H]1C(=O)NCC(=O)N[C@@H](CCC(=O)O)C(=O)N[C@@H](CCC(=O)O)C(=O)N[C@@H](C)C(=O)N[C@@H](CO)C(=O)N1CCC[C@H]1C(=O)N[C@@H](CCC(=O)O)C(=O)N[C@@H](CCC(=O)O)C(=O)N[C@@H](CC(C)C)C(=O)N[C@@H](CCC(=O)O)C(=O)N[C@@H](CCC(N)=O)C(=O)N[C@@H](Cc1ccc(O)cc1)C(=O)N[C@@H](Cc1ccc(O)cc1)C(=O)N[C@H](C(=O)N[C@@H](CO)C(=O)N[C@@H](CC(C)C)C(=O)N[C@@H](CCCNC(=N)N)C(=O)N[C@@H](Cc1c[nH]cn1)C(=O)N[C@@H](Cc1ccc(O)cc1)C(=O)N[C@@H](Cc1ccc(O)cc1)C(=O)N[C@@H](CC(N)=O)C(=O)N[C@@H](Cc1c[nH]c2ccccc12)C(=O)N[C@@H](CC(C)C)C(=O)N[C@H](C(=O)N[C@@H](CCCNC(=N)N)C(=O)N[C@@H](CCC(N)=O)C(=O)N[C@@H](CCCNC(=N)N)C(=O)N[C@@H](Cc1ccc(O)cc1)C(N)=O)[C@@H](C)O)C(C)C` [Compound 224, N{alpha-4}-(3-methylbutanoyl)-N{epsilon-7}-[2-(2-{2-[2-(2-{2-[(4S)-4-carboxy-4-(17-carboxyheptadecanamido)butanamido]ethoxy}ethoxy)acetamido]ethoxy}ethoxy)acetamido]-[4A,7K,11E,18E,19Q,22V,28Y,30W,31L]hPYY (4-36)] (Isovaleryl-APEK([AEEA-AEEA-γGlu-C18 diacid])PGEEASPEELEQYYVSLRHYYNWLTRQRY-NH2), 4.64 nM. `CC(C)CC(=O)N[C@@H](C)C(=O)N1CCC[C@H]1C(=O)N[C@@H](CCC(=O)O)C(=O)N[C@@H](CCCCNC(=O)COCCOCCNC(=O)COCCOCCNC(=O)CC[C@H](NC(=O)CCCCCCCCCCCCCCCCC(=O)O)C(=O)O)C(=O)N1CCC[C@H]1C(=O)N[C@@H](CCC(=O)O)C(=O)N[C@@H](CCC(=O)O)C(=O)N[C@@H](C)C(=O)N[C@@H](C)C(=O)N[C@@H](CO)C(=O)N1CCC[C@H]1C(=O)N[C@@H](CCC(=O)O)C(=O)N[C@@H](CCC(=O)O)C(=O)N[C@H](C(=O)N[C@@H](CCC(N)=O)C(=O)N[C@@H](CCCNC(=N)N)C(=O)N[C@@H](Cc1ccc(O)cc1)C(=O)N[C@@H](Cc1ccc(O)cc1)C(=O)N[C@H](C(=O)N[C@@H](CO)C(=O)N[C@@H](CC(C)C)C(=O)N[C@@H](CCCNC(=N)N)C(=O)N[C@@H](Cc1c[nH]cn1)C(=O)N[C@@H](Cc1ccc(O)cc1)C(=O)N[C@@H](Cc1ccc(O)cc1)C(=O)N[C@@H](CC(N)=O)C(=O)N[C@@H](Cc1c[nH]c2ccccc12)C(=O)N[C@@H](CC(C)C)C(=O)N[C@H](C(=O)N[C@@H](CCCNC(=N)N)C(=O)N[C@@H](CCC(N)=O)C(=O)N[C@@H](CCCNC(=N)N)C(=O)N[C@@H](Cc1ccc(O)cc1)C(N)=O)[C@@H](C)O)C(C)C)[C@@H](C)O` [Compound 226, N{alpha-4}-(3-methylbutanoyl)-N{epsilon-7}-[2-(2-{2-[2-(2-{2-[(4S)-4-carboxy-4-(17-carboxyheptadecanamido)butanamido]ethoxy}ethoxy)acetamido]ethoxy}ethoxy)acetamido]-[4A,7K,9E,11A,17T,18Q,22V,28Y,30W,31L]hPYY (4-36)]: the Ki came out at 1.21 nM.
